Results as given in patent US20080317769A1, “Vaccine Composition Comprising Alpha-Galactosylceramide as an Adjuvant For Intranasal Administration” (priority 2005, published 2008).
Entries after “also recorded” stand apart in the source; their conditions may differ.

Columns and labels:
[1] = test system: OVA-specific antibody responses; test: OVA-specific antibody responses by ELISA after intranasal co-administration of OVA and αGalCer, C57BL/6 mice; format: in vivo
Description: To investigate the activity of αGalCer as an adjuvant in mucosa, required amount of αGalCer and 100 μg of OVA or 100 μg of OVA alone was diluted with PBS, making 20 μl solution (10 μl/nostril), which was administered to C57BL/6 mice or Balb/c mice (Charles River Laboratories, Orient Co., Ltd., Korea) at 6-8 weeks three times at one-week intervals.
Six to eight-weeks-old […] mice (Charles River Laboratories, Orient Co., Ltd., Korea) were immunized with 100 μg of OVA alone or together with the indicated amounts of αGalCer (0.125, 0.5, 2.0 μg), diluted with PBS and made 20 μl (10 μl/nostril) solution, three times at one-week intervals.
A week after the final immunization, the mice were sacrificed. OVA-specific antibody responses were measured by ELISA. The nasal wash sample was obtained by washing the nasal passage with 100 μl of sterilized PBS (Yamamoto et al., J. Immunol., 161: 4115, 1998), and bronchoalveolar lavage fluid was also obtained by the same manner as described to prepare the lung wash (Chung et al., Immunobiology 206: 408, 2002).
OVA-specific IgG titers in the nasal wash and the lung wash were measured (Chung et al., Immunobiology 206: 408, 2002). To measure IgA, IgG1 and IgG2a titers, two-fold serially diluted samples were used. To determine IgA titer, horseradish-peroxidase-conjugated goat anti-mouse IgA (SIGMA, USA), peroxidase substrate and TMB (SIGMA, USA) were used and 0.5 N—HCL was added thereto to terminate color development. Then, OD450 was measured. To determine IgG, IgG1 and IgG2a titers, alkaline phosphatase-conjugated goat anti-mouse IgG, IgG1 and IgG2a (Southern Biotech, USA) and alkaline phosphatase substrate, p-nitrophenyl phosphate (SIGMA), were used.
To assess the immune bias towards Th1 or Th2 immune responses induced by α-GalCer nasal vaccine adjuvant indirectly, IgG isotypes in serum were determined and the ratios of IgG1 to IgG2a were calculated.

IFN-γ and IL-4 secretion = IFN-γ and IL-4 secretion of spleen and CLN cells cultured with OVA (sandwich ELISA), C57BL/6 mice; format: in vivo; settings: cells cultured with 500 μg/ml OVA for 4 days, one week after final immunization
Description: It was directly investigated whether α-GalCer nasal vaccine adjuvant skews immune response into Th1 or Th2 immune response. To measure the secretions of cytokines, cells were obtained from spleen and cervical lymph node (CLN) a week after the final immunization. The cells ([…]) were cultured with 500 μg/ml of OVA for 4 days. The secretions of IFN-γ and IL-4 in the culture supernatant were measured by using the mouse IFN-γ and IL-4 OptELA set ELISA kit (BD Pharmigen) according to the manufacturer's instruction.

[2] = test system: PR8 HA-specific antibody responses; design: species or system Balb/c mice; settings: mouse, in vivo
[3] = test system: IFN-γ-producing CD8+ T cells; test: IFN-γ-producing CD8+ T cells after β-galactosidase stimulation of spleen cells (Ad-LacZ immunization); format: in vivo; settings: Balb/c mice; Ad-LacZ + 0.125 μg αGalCer intranasal; spleen cells stimulated with 2.5 μg/mL β-galactosidase for 5 days
Description: Balb/c mice were immunized with 10^6 pfu of replication-deficient live adenovirus harboring beta-galactosidase gene (Ad-LacZ) (Viromed, Korea) alone or together with 0.125 μg of αGalCer by the intranasal administration, two times at two-week intervals. One week after the final immunization, the nasal wash, the lung wash and serum were separated, by the same manner as described in Example 1, to measure β-galactosidase-specific antibody response. In addition, to measure CTL activity, spleen cells were stimulated by 2.5 μg/mL of β-galactosidase for 5 days and IFN-γ-producing CD8+ T cells were examined by intracellular cytokine staining according to the procedure as described in Example <4-2>.

CD1d = molecular target: T1, CD1d (Mus musculus, UniProt P11609); test: Systemic IgG and in vivo CTL activity in wild type versus CD1d−/− C57BL/6 mice; settings: CD1d−/− vs wild type C57BL/6 mice; OVA + αGalCer intranasal three times at one-week intervals
T1 construct: host or cells: antigen presenting cells of living C57BL/6 mice (in vivo)
T1 sequence (P11609 22-336): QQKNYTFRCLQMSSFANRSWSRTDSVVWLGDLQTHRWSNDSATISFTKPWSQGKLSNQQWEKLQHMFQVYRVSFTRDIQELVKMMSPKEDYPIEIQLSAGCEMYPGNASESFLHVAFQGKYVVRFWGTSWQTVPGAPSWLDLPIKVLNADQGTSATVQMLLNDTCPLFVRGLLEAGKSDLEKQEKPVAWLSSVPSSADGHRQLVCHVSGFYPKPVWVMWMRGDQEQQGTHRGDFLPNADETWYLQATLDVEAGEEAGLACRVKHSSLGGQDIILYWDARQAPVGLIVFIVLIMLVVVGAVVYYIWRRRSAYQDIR
T1 sequence (P01887 21-119 partner): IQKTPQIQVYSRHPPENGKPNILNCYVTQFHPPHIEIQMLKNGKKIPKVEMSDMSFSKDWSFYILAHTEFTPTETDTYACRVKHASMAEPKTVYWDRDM
Description: To investigate whether the immune responses induced by αGalCer were mediated by CD1d, NKT deficient (resulted from the lack of CD1d) CD1d−/− C57BL/6 mice (Charles River Lab., Orient Co. Ltd., Korea) were used for the experiment (Park et al., J. Exp. Med., 193: 893, 2001). On the first week of the final intranasal administration, systemic IgG level in serum and in vivo CTL activity were measured in both wild type and CD1d−/− C57BL/6 mice by the same manner as described in Example 1 and Example 3.

[4] = test system: inactivated influenza virus A/PR/8/34 (PR8); test: Humoral immune response after intranasal formalin-inactivated PR8 virus with αGalCer; format: in vivo; settings: Balb/c mice
Description: To examine the role of αGalCer as an adjuvant of a killed virus, influenza virus A/PR/8/34 (PR8), which was inactivated with formalin, was used as an antigen to examine the anti-virus immune response. Balb/c mice were immunized with indicated amounts (1 μg, 10 μg) of inactivated PR8 alone or together with αGalCer by the intranasal administration twice at two-week intervals. Two weeks after the final immunization, the mice were sacrificed and following experiments were performed.
The nasal wash, the lung wash and serum were separated from the sacrificed mice and the antibody productions were observed therein by the same manner as described in Example 1.

SMILES: CCCCCCCCCCCCCCCCCCCCCCCCCC(=O)N[C@@H](CO[C@H]1O[C@H](CO)[C@H](O)[C@H](O)[C@H]1O)[C@H](O)[C@H](O)CCCCCCCCCCCCCC [αGalCer, alpha-galactosylceramide]
- OVA-specific IgA responses in the nasal wash and the lung wash ([1]; 2.0 μg αGalCer + 100 μg OVA intranasal, three times at one-week intervals, vs vehicle alone or OVA alone): significantly higher; also recorded: increased
- OVA-specific Th2 type IgG1 and Th1 type IgG2a levels in serum ([1]; co-administration of αGalCer and OVA intranasal): remarkable increase; also recorded: increased
- OVA-specific IgG in serum ([1]; αGalCer 0.125, 0.5, 2.0 μg + 100 μg OVA intranasal, vs vehicle alone or OVA alone): higher levels
- secretions of IFN-γ and IL-4 in spleen and CLN (IFN-γ and IL-4 secretion): significantly increased
- PR8 HA-specific IgG antibody in serum [2]: high level
- numbers of IFN-γ-producing CD8+ T cells [3]: significant increase
- CTL lytic activity in draining lymph node and systemic lymphoid organs of CD1d−/− mice (CD1d): inhibited
- systemic IgG antibody response in CD1d−/− mice (CD1d): significantly inhibited
- antigen-specific systemic IgG in serum ([4]; inactivated PR8 (1 μg, 10 μg) + αGalCer intranasal twice at two-week intervals, vs inactivated PR8 alone): significantly higher; also recorded: increased
- mucosal S-IgA in the nasal wash and the lung wash ([4]; inactivated PR8 + αGalCer intranasal twice at two-week intervals): remarkably increased
